Measured values from patent US11365192B2, “Pyridine compound substituted with azole” (TAISHO PHARMACEUTICAL CO., LTD., priority 2017, dated 2022).
pIC50: −log10 of the molar value.

How the values were obtained:
human CYP4A11 = human CYP4A11 (Homo sapiens (Human), UniProt Q02928); assay: Inhibition test against 20-HETE producing enzyme CYP4A11 (luciferine derivative, luminescence); format: biochemical
Summary of the method: (§1)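 E. coli membranes (100 μg/mL protein) expressing human enzyme, room temperature 60 min, luciferin-derivative luminescence; IC50 from % inhibition. CYP4F2: 50 mM KPO4 pH 7.4, 2.5 μM substrate, 1 mM NADPH. CYP4A11: 100 mM Tris-HCl pH 7.5, 60 μM substrate, NADP+/glucose 6-phosphate/G6PDH regenerating system, 3.3 mM MgCl2.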

human CYP4F2 = human CYP4F2 (Homo sapiens (Human), UniProt P78329); assay: Inhibition test against 20-HETE producing enzyme CYP4F2 (luciferine derivative, luminescence); format: biochemical
Summary of the method: as §1

[1] = E. coli membrane fraction expressing human CYP4A11, 60 μM luciferine derivative, room temperature 60 minutes
[2] = E. coli membrane fraction expressing human CYP4F2, 2.5 μM luciferine derivative, room temperature 60 minutes
[3] = human CYP4A11, luciferine derivative, luminescence
[4] = human CYP4F2, luciferine derivative, luminescence

human CYP4A11, sequence (Q02928 5-519): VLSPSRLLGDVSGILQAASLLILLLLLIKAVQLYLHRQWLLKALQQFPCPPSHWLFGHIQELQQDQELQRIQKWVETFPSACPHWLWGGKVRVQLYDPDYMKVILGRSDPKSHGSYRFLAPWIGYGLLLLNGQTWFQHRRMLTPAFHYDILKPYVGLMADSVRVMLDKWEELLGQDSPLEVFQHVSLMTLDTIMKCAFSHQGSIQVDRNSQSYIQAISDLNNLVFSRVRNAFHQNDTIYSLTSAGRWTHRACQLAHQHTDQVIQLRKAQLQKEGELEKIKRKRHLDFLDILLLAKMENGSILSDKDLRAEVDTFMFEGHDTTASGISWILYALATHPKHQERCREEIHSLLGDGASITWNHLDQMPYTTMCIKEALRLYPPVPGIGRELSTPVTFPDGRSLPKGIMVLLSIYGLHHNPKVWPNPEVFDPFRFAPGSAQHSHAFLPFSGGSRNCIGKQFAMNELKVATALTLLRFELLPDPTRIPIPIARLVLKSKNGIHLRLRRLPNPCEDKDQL
human CYP4F2, sequence (P78329 5-520): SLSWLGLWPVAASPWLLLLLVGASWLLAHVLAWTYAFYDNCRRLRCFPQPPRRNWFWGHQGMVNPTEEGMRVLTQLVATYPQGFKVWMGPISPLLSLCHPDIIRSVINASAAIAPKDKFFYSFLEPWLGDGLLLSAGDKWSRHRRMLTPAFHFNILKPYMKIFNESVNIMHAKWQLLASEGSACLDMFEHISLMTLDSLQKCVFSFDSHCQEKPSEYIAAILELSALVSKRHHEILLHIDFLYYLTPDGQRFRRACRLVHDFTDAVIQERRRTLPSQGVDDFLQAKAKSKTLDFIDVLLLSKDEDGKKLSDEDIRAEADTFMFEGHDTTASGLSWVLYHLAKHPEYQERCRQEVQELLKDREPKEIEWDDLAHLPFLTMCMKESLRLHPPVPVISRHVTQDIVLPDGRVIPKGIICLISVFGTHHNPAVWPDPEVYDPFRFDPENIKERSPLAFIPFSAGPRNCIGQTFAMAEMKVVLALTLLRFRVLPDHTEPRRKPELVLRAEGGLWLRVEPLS

| SMILES | pIC50 (human CYP4A11; [1]) | pIC50 (human CYP4F2; [2]) | pIC50 (human CYP4A11; [3]) | pIC50 (human CYP4F2; [4]) |
| --- | --- | --- | --- | --- |
| CCS(=O)(=O)NCC(=O)N1CCC[C@@H](COc2ccc(-c3ccn[nH]3)nc2)C1 [Example 41-5] | 5.96 | 6.26 |  |  |
| NS(=O)(=O)CCCC(=O)N1CCC[C@@H](COc2ccc(-c3ccn[nH]3)nc2)C1 [Example 41-6] | 6.36 | 6.49 |  |  |
| CNC(=O)c1cccc(COc2ccc(-c3ccn[nH]3)nc2)c1 [Example 42-1, N-Methyl-3-[[6-(1H-pyrazol-5-yl)-3-pyridinyl]oxymethyl]benzamide] | 6.38 | 7.12 |  |  |
| CCCNC(=O)c1cccc(COc2ccc(-c3ccn[nH]3)nc2)c1 [Example 42-2] | 6.96 | 7.60 |  |  |
| O=C(NCCO)c1cccc(COc2ccc(-c3ccn[nH]3)nc2)c1 [Example 42-3] | 6.46 | 6.68 |  |  |
| CNC(=O)Cc1cccc(COc2ccc(-c3ccn[nH]3)nc2)c1 [Example 42-4] | 6.27 | 7.92 |  |  |
| CN(C)C(=O)Cc1cccc(COc2ccc(-c3ccn[nH]3)nc2)c1 [Example 42-5] | 6.70 | 6.59 |  |  |
| CCCNC(=O)Cc1cccc(COc2ccc(-c3ccn[nH]3)nc2)c1 [Example 42-6] | 6.52 | 7.01 |  |  |
| O=C(Cc1cccc(COc2ccc(-c3ccn[nH]3)nc2)c1)NCCO [Example 42-7] | 6.12 | 5.96 |  |  |
| CNC(=O)CCc1cccc(COc2ccc(-c3ccn[nH]3)nc2)c1 [Example 42-8] | 6.92 | 7.15 |  |  |
| CN(C)C(=O)CCc1cccc(COc2ccc(-c3ccn[nH]3)nc2)c1 [Example 42-9] | 7.17 | 7.12 |  |  |
| CCCNC(=O)CCc1cccc(COc2ccc(-c3ccn[nH]3)nc2)c1 [Example 42-10] | 7.34 | 7.82 |  |  |
| O=C(CCc1cccc(COc2ccc(-c3ccn[nH]3)nc2)c1)NCCO [Example 42-11] | 7.00 | 7.02 |  |  |
| O=C(CCc1cccc(COc2ccc(-c3ccn[nH]3)nc2)c1)N1CCC1 [Example 42-12] | 7.36 | 7.38 |  |  |
| O=C(CCc1cccc(COc2ccc(-c3ccn[nH]3)nc2)c1)N1CCCC1 [Example 42-13] | 6.82 | 7.82 |  |  |
| O=C(CCc1cccc(COc2ccc(-c3ccn[nH]3)nc2)c1)N1CCCCC1 [Example 42-14] |  |  | 6.62 | 7.52 |
| O=C(CCc1cccc(COc2ccc(-c3ccn[nH]3)nc2)c1)N1CCOCC1 [Example 42-15] |  |  | 6.40 | 6.85 |
| CN(C)C(=O)/C=C/c1cccc(COc2ccc(-c3ccn[nH]3)nc2)c1 [Example 42-16] |  |  | 6.68 | 8.24 |
| O=C(CCc1cccc(COc2cnc(-c3ccn[nH]3)c(F)c2)c1)N1CCC1 [Example 42-17] |  |  | 7.46 | 7.92 |
| O=C(CCc1cccc(COc2cnc(-c3ccn[nH]3)c(F)c2)c1)NCCO [Example 42-18] |  |  | 7.24 | 7.68 |
| O=C(CCc1cccc(COc2cnc(-c3ccn[nH]3)c(F)c2)c1)N1CC(O)C1 [Example 42-19] |  |  | 6.96 | 7.33 |
| O=C(CCc1cccc(COc2cnc(-c3ccn[nH]3)c(F)c2)c1)NC1COC1 [Example 42-20] |  |  | 7.12 | 7.96 |
| CN(C)C(=O)[C@H]1C[C@](O)(c2cccc(COc3ccc(-c4ccn[nH]4)nc3)c2)C1 [Example 42-21] |  |  | 6.37 | 7.55 |
| CN(C)C(=O)[C@H]1C[C@](O)(c2cc(COc3ccc(-c4ccn[nH]4)nc3)ccc2F)C1 [Example 42-22] |  |  | 6.57 | 7.00 |
| CNC(=O)C(C)c1cccc(COc2ccc(-c3ccn[nH]3)nc2)c1 (centres unmarked) [Example 42-23] |  |  | 6.80 | 7.26 |
| CNC(=O)C(C)(C)c1cccc(COc2ccc(-c3ccn[nH]3)nc2)c1 [Example 42-24] |  |  | 7.41 | 6.82 |

More lines, now with the values ahead:

| pIC50 (human CYP4A11; [1]) | pIC50 (human CYP4F2; [2]) | pIC50 (human CYP4A11; [3]) | pIC50 (human CYP4F2; [4]) | SMILES |
| --- | --- | --- | --- | --- |
|  |  | 7.24 | 7.28 | O=C(CCc1cccc(COc2ccc(-c3ccn[nH]3)nc2)c1)N1CC(F)C1 [Example 43-1, 1-(3-Fluoro-1-azetidinyl)-3-[3-[[6-(1H-pyrazol-5-yl)-3-pyridinyl]oxymethyl]phenyl]-1-propanone] |
|  |  | 7.23 | 7.32 | O=C(CCc1cccc(COc2ccc(-c3ccn[nH]3)nc2)c1)N1CC(F)(F)C1 [Example 43-2] |
|  |  | 6.51 | 6.77 | CN(CCO)C(=O)CCc1cccc(COc2ccc(-c3ccn[nH]3)nc2)c1 [Example 43-3] |
|  |  | 6.82 | 7.35 | O=C(CCc1cccc(COc2ccc(-c3ccn[nH]3)nc2)c1)NC1COC1 [Example 43-4] |
|  |  | 7.09 | 7.40 | COCCNC(=O)CCc1cccc(COc2ccc(-c3ccn[nH]3)nc2)c1 [Example 43-5] |
|  |  | 7.25 | 7.04 | C[C@@H](O)CNC(=O)CCc1cccc(COc2ccc(-c3ccn[nH]3)nc2)c1 [Example 43-6] |
|  |  | 6.49 | 7.20 | C[C@@H](CO)NC(=O)CCc1cccc(COc2ccc(-c3ccn[nH]3)nc2)c1 [Example 43-7] |
|  |  | 6.92 | 6.92 | C[C@H](CO)NC(=O)CCc1cccc(COc2ccc(-c3ccn[nH]3)nc2)c1 [Example 43-8] |
|  |  | 6.89 | 7.14 | C[C@H](O)CNC(=O)CCc1cccc(COc2ccc(-c3ccn[nH]3)nc2)c1 [Example 43-9] |
|  |  | 6.85 | 6.72 | O=C(CCc1cccc(COc2ccc(-c3ccn[nH]3)nc2)c1)N1CC(O)C1 [Example 43-10] |
|  |  | 6.55 | 7.49 | O=C(CCc1cccc(COc2ccc(-c3ccn[nH]3)nc2)c1)NCC(=O)N1CCCC1 [Example 43-11] |
|  |  | 7.12 | 7.40 | CO[C@H](C)CNC(=O)CCc1cccc(COc2ccc(-c3ccn[nH]3)nc2)c1 [Example 43-12] |
|  |  | 7.32 | 7.68 | O=C(CCc1cccc(COc2ccc(-c3ccn[nH]3)nc2)c1)NC[C@H]1CCCO1 [Example 43-13] |
|  |  | 7.28 | 7.74 | O=C(CCc1cccc(COc2ccc(-c3ccn[nH]3)nc2)c1)NC[C@@H]1CCCO1 [Example 43-14] |
|  |  | 6.04 | 6.55 | CN(C)CCNC(=O)CCc1cccc(COc2ccc(-c3ccn[nH]3)nc2)c1 [Example 43-15] |
|  |  | 6.72 | 7.66 | CN(C)C(=O)C1CC1c1cccc(COc2ccc(-c3ccn[nH]3)nc2)c1 (centres unmarked) [Example 43-16] |
|  |  | 7.31 | 5.12 | CS(=O)(=O)NC(=O)c1cccc(COc2ccc(-c3ccn[nH]3)nc2)c1 [Example 44-1, N-Methylsulfonyl-3-[[6-(1H-pyrazol-5-yl)-3-pyridinyl]oxymethyl]benzamide] |
|  |  | 6.47 | 7.14 | CN(C(=O)c1cccc(COc2ccc(-c3ccn[nH]3)nc2)c1)S(C)(=O)=O [Example 44-2] |

| pIC50 (human CYP4A11; [1]) | pIC50 (human CYP4F2; [2]) | pIC50 (human CYP4A11; [3]) | pIC50 (human CYP4F2; [4]) | SMILES |
| --- | --- | --- | --- | --- |
|  |  | 7.36 | 4.96 | CS(=O)(=O)NC(=O)Cc1cccc(COc2ccc(-c3ccn[nH]3)nc2)c1 [Example 44-3] |
|  |  | 6.39 | 6.54 | CN(C(=O)Cc1cccc(COc2ccc(-c3ccn[nH]3)nc2)c1)S(C)(=O)=O [Example 44-4] |
|  |  | 7.51 | 5.57 | CS(=O)(=O)NC(=O)CCc1cccc(COc2ccc(-c3ccn[nH]3)nc2)c1 [Example 44-5] |
|  |  | 6.64 | 7.35 | CN(C(=O)CCc1cccc(COc2ccc(-c3ccn[nH]3)nc2)c1)S(C)(=O)=O [Example 44-6] |
|  |  | 5.42 | 7.07 | NC(=O)c1cc(COc2ccc(-c3ccn[nH]3)nc2)ccn1 [Example 44-7, 4-[[6-(1H-Pyrazol-5-yl)-3-pyridinyl]oxymethyl]-2-pyridinecarboxamide] |
|  |  | 6.92 | 5.12 | O=C(O)CCNC(=O)c1cccc(COc2ccc(-c3ccn[nH]3)nc2)c1 [Example 45-1, 3-[[Oxo-[3-[[6-(1H-pyrazol-5-yl)-3-pyridinyl]oxymethyl]phenyl]methyl]amino]propanoic Acid] |
|  |  | 6.82 | 5.49 | CN(CCC(=O)O)C(=O)c1cccc(COc2ccc(-c3ccn[nH]3)nc2)c1 [Example 45-2] |
|  |  | 7.04 | 5.21 | CC(C)(CNC(=O)c1cccc(COc2ccc(-c3ccn[nH]3)nc2)c1)C(=O)O [Example 45-3] |
|  |  | 7.07 | 5.19 | O=C(NCC1(C(=O)O)CC1)c1cccc(COc2ccc(-c3ccn[nH]3)nc2)c1 [Example 45-4] |
|  |  | 7.13 | 6.12 | O=C(NCC1(C(=O)O)CCCC1)c1cccc(COc2ccc(-c3ccn[nH]3)nc2)c1 [Example 45-5] |
|  |  | 6.60 | 5.35 | O=C(NCC1(C(=O)O)CCOCC1)c1cccc(COc2ccc(-c3ccn[nH]3)nc2)c1 [Example 45-6] |
|  |  | 6.11 | 5.54 | O=C(O)C[C@H](NC(=O)c1cccc(COc2ccc(-c3ccn[nH]3)nc2)c1)c1ccccc1 [Example 45-7] |
|  |  | 6.89 | 5.72 | O=C(O)C[C@@H](NC(=O)c1cccc(COc2ccc(-c3ccn[nH]3)nc2)c1)c1ccccc1 [Example 45-8] |
|  |  | 7.09 | 5.32 | C[C@H](NC(=O)c1cccc(COc2ccc(-c3ccn[nH]3)nc2)c1)C(=O)O [Example 45-9] |
|  |  | 6.74 | 5.00 | C[C@@H](NC(=O)c1cccc(COc2ccc(-c3ccn[nH]3)nc2)c1)C(=O)O [Example 45-10] |
|  |  | 7.64 | 5.92 | O=C(N[C@@H](Cc1ccccc1)C(=O)O)c1cccc(COc2ccc(-c3ccn[nH]3)nc2)c1 [Example 45-11] |
|  |  | 6.66 | 6.05 | O=C(N[C@H](Cc1ccccc1)C(=O)O)c1cccc(COc2ccc(-c3ccn[nH]3)nc2)c1 [Example 45-12] |
